Earlier results on 1 molecule are cited in patent publication US20230061908A1 (priority 2020, published 2023).

SMILES strings stand for the structures.

The conditions of the data set: wide distribution to most tissues.

For `CCC(CC)COC(=O)[C@H](C)N[P@](=O)(OC[C@H]1O[C@@](C#N)(c2ccc3c(N)ncnn23)[C@H](O)[C@@H]1O)Oc1ccccc1` [Remdesivir], the “crossing of the BBB (blood-brain barrier)” value was “does not cross the BBB”.
